Measurements: publication PMC10646256, “Scutellarin Rescued Mitochondrial Damage through Ameliorating Mitochondrial Glucose Oxidation via the Pdk‐Pdc Axis” (Advanced Science, 2023)

Biological target: pyruvate dehydrogenase kinase 2 (PDK2) (Homo sapiens, UniProt Q15119)
Test: mobility shift kinase assay with purified GST-PDK2; supported by DARTS, CETSA, co-IP-MS and LiP-MS
Assay type: biochemical

Structure (SMILES): O=C(O)[C@H]1O[C@@H](Oc2cc3oc(-c4ccc(O)cc4)cc(=O)c3c(O)c2O)[C@H](O)[C@@H](O)[C@@H]1O [SG, Scutellarin]
- mobility shift kinase assay with purified GST-PDK2; supported by DARTS, CETSA, c: SG had significantly higher inhibitory activity against PDK2 than DCA at multiple concentrations
